Reference: article PMC4649711, “In1-ghrelin splicing variant is overexpressed in pituitary adenomas and increases their aggressive features” (Scientific Reports, 2015)
Entries after “also recorded” stand apart in the source; their conditions may differ.

Legend:
[1] = tested on: PRL-omas (tumoral pituitary cells); test: free cytosolic calcium kinetics ([Ca^2+]i), PRL-oma cells; type: cell-based, human; conditions: fura-2AM
Method: Pituitary adenoma specimens were dispersed into single cells by enzymatic and mechanical disruption and cultured onto tissue culture plates in serum containing medium, as previously described. Briefly, pituitary samples were resected by endoscopic transsphenoidal surgery and transferred to sterile cold (4°C) culture medium (S-MEM, Gibco, Madrid, Spain) supplemented with 0.1% BSA, 0.01% L-glutamine, 1% antibiotic-antimycotic solution, and 2.5% HEPES. Samples were minced under sterile conditions into 1–2 mm^3 pieces. […]
As previously reported, changes in [Ca^2+]i in single cells were measured using fura-2AM (50,000 cells/coverslip; Molecular Probes, Eugene, OR)[23][30]. […] Cells were examined for changes in [Ca^2+]i after the appropriate treatment (native ghrelin, In1-19 or In1-40) using a 40× objective with Immersion Oil Type NF (Nikon, Tokyo, Japan) while exposed to alternating 340–380 nm light beams, and the intensity of light emission at 505 nm was measured every 5 seconds using MetaFluor Software (Imaging Corp., West Chester, PA, USA). […] Changes in [Ca^2+]i in CHO-K1 cell line expressing recombinant GHSR1a or GHSR1b receptor were measured using Calcium 4 Explorer Kit (Molecular Devices, Sunnyvale, CA, USA). […] Fluorescent signals were then monitored using the FLIPR Tetra (Molecular Devices, Sunnyvale, CA, USA) during which cells were stimulated with compounds. […]

p-ERK1/2 = test: ERK1/2 phosphorylation by western blot in GH-omas; type: cell-based, human; conditions: 100 nM, 8 minutes, p-ERK1/2/total ERK1/2 vs vehicle (100%), n = 4
Method: (§1) Pituitary adenoma specimens were dispersed into single cells by enzymatic and mechanical disruption and cultured onto tissue culture plates in serum containing medium, as previously described. Briefly, pituitary samples were resected by endoscopic transsphenoidal surgery and transferred to sterile cold (4°C) culture medium (S-MEM, Gibco, Madrid, Spain) supplemented with 0.1% BSA, 0.01% L-glutamine, 1% antibiotic-antimycotic solution, and 2.5% HEPES. Samples were minced under sterile conditions into 1–2 mm^3 pieces. Some pieces were stored at −80°C for posterior RNA isolation and, when possible, the remaining tissue samples were washed and incubated in 30 mL S-MEM medium supplemented 0.3% trypsin (Beckson, Dickinson and Company, Sparks, MD, USA) in a spinner flask (Bellco Glass, Vineland, NJ, USA) for 2 h of gentle shaking at 37°C and then, incubation was continued for another 5 min in presence of 1 mg of DNAse I (Roche, Mannheim, Germany). Dispersed cells were decanted by centrifugation and then, by repeated aspiration into a smoothtipped glass Pasteur pipette. Cells suspensions were washed once in 4.5 g/L glucose containing DMEM medium (Gibco, Madrid, Spain) supplemented with 0.1% BSA, 0.01% L-glutamine, 1% antibiotic-antimycotic solution, and 2.5% HEPES. […]

GH-omas = test: cell viability of GH-oma primary cultures, peptide treatment; type: cell-based, human; conditions: 100 nM, alamar-blue
Method: Pituitary adenoma specimens were dispersed into single cells by enzymatic and mechanical disruption and cultured onto tissue culture plates in serum containing medium, as previously described. Briefly, pituitary samples were resected by endoscopic transsphenoidal surgery and transferred to sterile cold (4°C) culture medium (S-MEM, Gibco, Madrid, Spain) supplemented with 0.1% BSA, 0.01% L-glutamine, 1% antibiotic-antimycotic solution, and 2.5% HEPES. Samples were minced under sterile conditions into 1–2 mm^3 pieces. Some pieces were stored at −80°C for posterior RNA isolation and, when possible, the remaining tissue samples were washed and incubated in 30 mL S-MEM medium supplemented 0.3% trypsin (Beckson, Dickinson and Company, Sparks, MD, USA) in a spinner flask (Bellco Glass, Vineland, NJ, USA) for 2 h of gentle shaking at 37°C and then, incubation was continued for another 5 min in presence of 1 mg of DNAse I (Roche, Mannheim, Germany). Dispersed cells were decanted by centrifugation and then, by repeated aspiration into a smoothtipped glass Pasteur pipette. Cells suspensions were washed once in 4.5 g/L glucose containing DMEM medium (Gibco, Madrid, Spain) supplemented with 0.1% BSA, 0.01% L-glutamine, 1% antibiotic-antimycotic solution, and 2.5% HEPES. Cell number and viability was estimated by the Trypan blue exclusion test in Neubauer chamber, where viability was always 90–100%.
As previously reported, cell viability was estimated using alamar-blue reagent (10,000 cells/well-plate; Biosource International, Camarillo, CA, USA)[30][50][52]. Briefly, cells were serum-starved for 12–16 h before the measurements and treated with serum-free medium containing 10% alamar-blue for 3 h. Reduction of alamar-blue reagent was quantified exciting at 560 nm and reading at 590 nm using the FlexStation III system (Molecular Devices, Sunnyvale, CA, USA). Subsequently, media was replaced by serum-containing alamar-blue free medium and incubated for additional 24–72 h, measuring the alamar-blue reduction every 24 h. […]

ACTH-omas = test: cell viability of ACTH-oma primary cultures, peptide treatment; type: cell-based, human; conditions: 100 nM, 24 h, alamar-blue, n = 2–8
Method: as §1, with “pipette.” for “pipette. Cells suspensions were washed once in 4.5 g/L glucose containing DMEM medium (Gibco, Madrid, Spain) supplemented with 0.1% BSA, 0.01% L-glutamine, 1% antibiotic-antimycotic solution, and 2.5% HEPES.”
(§2) As previously reported, cell viability was estimated using alamar-blue reagent (10,000 cells/well-plate; Biosource International, Camarillo, CA, USA)[30][50][52]. […] Reduction of alamar-blue reagent was quantified exciting at 560 nm and reading at 590 nm using the FlexStation III system (Molecular Devices, Sunnyvale, CA, USA). […]

PRL-omas = test: cell viability of PRL-oma primary cultures, peptide treatment; type: cell-based, human; conditions: 100 nM, time not specified in text (24-, 48- and/or 72-h), alamar-blue, n = 2–3
Method: as §1, with “pipette.” for “pipette. Cells suspensions were washed once in 4.5 g/L glucose containing DMEM medium (Gibco, Madrid, Spain) supplemented with 0.1% BSA, 0.01% L-glutamine, 1% antibiotic-antimycotic solution, and 2.5% HEPES.”
as §2

[2] = tested on: GHSR-lacking cells (e.g. prostate cell lines); conditions: cited from earlier work
[3] = tested on: rat pituitary somatotrope cell lines; design: method as in PMID 15296479; conditions: cited from earlier work
[4] = tested on: other endocrine cell types (e.g. pancreatic cells); design: method as in PMID 17068144; conditions: cited from earlier work

Question: With `CCCCCCCC(=O)OC[C@H](NC(=O)[C@H](CO)NC(=O)CN)C(=O)N[C@@H](Cc1ccccc1)C(=O)N[C@@H](CC(C)C)C(=O)N[C@@H](CO)C(=O)N1CCC[C@H]1C(=O)N[C@@H](CCC(=O)O)C(=O)N[C@@H](Cc1c[nH]cn1)C(=O)N[C@@H](CCC(N)=O)C(=O)N[C@@H](CCCNC(=N)N)C(=O)N[C@H](C(=O)N[C@@H](CCC(N)=O)C(=O)N[C@@H](CCC(N)=O)C(=O)N[C@@H](CCCNC(=N)N)C(=O)N[C@@H](CCCCN)C(=O)N[C@@H](CCC(=O)O)C(=O)N[C@@H](CO)C(=O)N[C@@H](CCCCN)C(=O)N[C@@H](CCCCN)C(=O)N1CCC[C@H]1C(=O)N1CCC[C@H]1C(=O)N[C@@H](C)C(=O)N[C@@H](CCCCN)C(=O)N[C@@H](CC(C)C)C(=O)N[C@@H](CCC(N)=O)C(=O)N1CCC[C@H]1C(=O)N[C@@H](CCCNC(=N)N)C(=O)O)C(C)C` [AG] as the compound, how does the “[Ca^2+]i response (in words)” value [1] read?
Answer: Its value is “only a low proportion of these pituitary adenoma cells altered their [Ca^2+]i”.

Question: What about the “# samples” value ([1]; responsive/tested samples, 217 / 160 / 88 cells analyzed for AG / In1-19 / In1-40, peptides 100 nM (abstract)) of the same compound?
Answer: The value was 2/6.

Question: And the p-ERK1/2 levels (p-ERK1/2)?
Answer: The p-ERK1/2 levels was “clear increase; also recorded: increased both, p-ERK1/2 as well as p-Akt, levels”.

Question: And the cell viability (GH-omas; 48 h, n = 5–17)?
Answer: Its cell viability is “significantly increased”.

Question: And the cell viability (GH-omas; 72 h, n = 5–17)?
Answer: Its cell viability is “significantly increased”.

Question: And the cell viability (GH-omas; time not given)?
Answer: Its cell viability is “modestly increased GH-oma cell viability”.

Question: And the cell viability (ACTH-omas)?
Answer: The cell viability was “increased cell viability”.

Question: And the cell viability (PRL-omas)?
Answer: Its cell viability is “significant increases”.

Question: What about the “responses in GHSR-lacking cells” value [2] of the same compound?
Answer: Its value is “have been found in GHSR-lacking cells”.

Question: What about the cell proliferation [3] of the same compound?
Answer: Its cell proliferation is “can stimulate cell proliferation”.

Question: And the apoptotic rate [4]?
Answer: The apoptotic rate was “did not affect the apoptotic rate”.
